Reference: ChEMBL document CHEMBL4130359, “Indazole-based ligands for estrogen-related receptor α as potential anti-diabetic agents” (Eur J Med Chem, 2017)

Columns and labels:
[1] = tested on: Rattus norvegicus; format: functional, Zucker
[2] = biological target: T1, Steroid hormone receptor ERR1 (Homo sapiens, UniProt P11474); assay: Antagonist activity at His6-tagged ERRalpha LBD (unknown origin) assessed as inhibition of GST-tagged SRC-2 co-activator peptide recruitment after 18 hrs by TR-FRET assay
T1 sequence (P11474 whole entry): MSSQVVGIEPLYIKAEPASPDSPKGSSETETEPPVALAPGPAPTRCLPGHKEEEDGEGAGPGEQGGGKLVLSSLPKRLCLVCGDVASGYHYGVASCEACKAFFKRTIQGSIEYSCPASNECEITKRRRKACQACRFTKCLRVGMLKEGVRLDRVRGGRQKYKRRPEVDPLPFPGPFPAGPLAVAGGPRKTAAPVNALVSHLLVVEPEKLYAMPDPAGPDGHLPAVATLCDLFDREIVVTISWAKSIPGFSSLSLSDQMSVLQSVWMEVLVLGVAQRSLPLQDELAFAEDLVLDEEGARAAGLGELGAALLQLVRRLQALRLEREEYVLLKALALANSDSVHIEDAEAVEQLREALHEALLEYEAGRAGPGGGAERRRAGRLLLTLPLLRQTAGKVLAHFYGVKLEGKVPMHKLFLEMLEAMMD

[3] = biological target: Estrogen-related receptor gamma (Homo sapiens, UniProt P62508); assay: Antagonist activity at ERRgamma (unknown origin) assessed as inhibition of co-activator peptide recruitment by TR-FRET assay
Estrogen-related receptor gamma, sequence (P62508 whole entry): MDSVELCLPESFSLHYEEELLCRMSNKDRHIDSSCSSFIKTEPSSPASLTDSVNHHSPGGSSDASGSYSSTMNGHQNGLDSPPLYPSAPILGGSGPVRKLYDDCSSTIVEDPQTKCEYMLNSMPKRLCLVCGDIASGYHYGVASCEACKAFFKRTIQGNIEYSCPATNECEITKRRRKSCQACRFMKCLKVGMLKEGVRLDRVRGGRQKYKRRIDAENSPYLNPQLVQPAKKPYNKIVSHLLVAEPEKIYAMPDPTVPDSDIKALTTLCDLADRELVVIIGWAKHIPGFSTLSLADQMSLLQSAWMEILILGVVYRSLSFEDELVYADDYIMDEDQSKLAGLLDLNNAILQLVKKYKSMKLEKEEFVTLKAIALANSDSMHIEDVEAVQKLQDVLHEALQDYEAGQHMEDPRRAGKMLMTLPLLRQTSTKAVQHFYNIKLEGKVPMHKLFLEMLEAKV

[4] = Tmax in Sprague-Dawley rat at 10 mg/kg administered via oral gavage by LC-MS analysis; format: ADME, organism-based; settings: in vivo
[5] = Terminal half life in ob/ob mouse at 18 mg/kg administered via oral gavage by LC-MS analysis; format: ADME, organism-based; settings: in vivo, read-out: beta t1/2 (converted)
[6] = AUC (0 to 24 hrs) in Zucker rat sub-chronic fa/fa prediabetic model at 50 mg/kg, po qd measured on day 1 post dose; format: ADME, organism-based; parameters: dose 50 mg/kg, time < 24 hr, route oral; settings: in vivo
[7] = AUC (0 to 24 hrs) in Zucker rat sub-chronic fa/fa prediabetic model at 50 mg/kg, po qd for 26 days measured on day 26 post last dose; format: ADME, organism-based; parameters: dose 50 mg/kg, time < 24 hr, route oral; settings: in vivo
[8] = tested on: Rattus norvegicus; assay: Toxicity in Zucker rat sub-chronic fa/fa prediabetic model assessed as change in body weight at 1 mg/kg, po qd for 29 days measured on day 1 to 29 during compound dosing (reference value: 140 +/- 7 g); format: organism-based; settings: in vivo, 696 h
[9] = tested on: Rattus norvegicus; assay: Toxicity in Zucker rat sub-chronic fa/fa prediabetic model assessed as change in body weight at 10 mg/kg, po qd for 29 days measured on day 1 to 29 during compound dosing (reference value: 140 +/- 7 g); format: organism-based; settings: in vivo, 696 h
[10] = tested on: Rattus norvegicus; assay: Toxicity in Zucker rat sub-chronic fa/fa prediabetic model assessed as epididymal white adipose tissue weight at 1 mg/kg, po qd for 31 days measured on day 32 (reference value: 13.9 +/- 0.6 g); format: organism-based; settings: in vivo, 744 h
[11] = tested on: Rattus norvegicus; assay: Toxicity in Zucker rat sub-chronic fa/fa prediabetic model assessed as triglyceride level per gram liver at 1 mg/kg, po qd for 31 days measured on day 32 (reference value: 163.4 +/- 8.3 mg); format: organism-based; settings: in vivo, 744 h
[12] = tested on: Rattus norvegicus; assay: Toxicity in Zucker rat sub-chronic fa/fa prediabetic model assessed as insulin level per gram pancreas at 50 mg/kg, po qd for 31 days measured on day 32 (reference value: 55.2 +/- 5.5 ug); format: organism-based; settings: in vivo, 744 h
[13] = tested on: Rattus norvegicus; assay: Toxicity in Zucker rat sub-chronic fa/fa prediabetic model assessed as serum triglyceride level at 10 mg/kg, po qd for 31 days measured on day 32 (reference value: 1382 +/- 268 mg/dl); format: organism-based; settings: in vivo, 744 h
[14] = tested on: Rattus norvegicus; assay: Toxicity in Zucker rat sub-chronic fa/fa prediabetic model assessed as serum cholesterol level at 10 mg/kg, po qd for 31 days measured on day 32 (reference value: 295 +/- 91 mg/dl); format: organism-based; settings: in vivo, 744 h
[15] = Drug uptake in liver of Zucker rat sub-chronic fa/fa prediabetic model at 12.5 mg/kg, po qd for 11 days; format: ADME, organism-based; settings: read-out: Drug uptake
[16] = tested on: Rattus norvegicus; format: functional, Zucker; remark: listed apart in the source
[17] = Cmax in […] chronic ob/ob model at 50 mg/kg, po qd measured on day 1 post dose; format: ADME, organism-based; parameters: dose 50 mg/kg, route oral; settings: in vivo
[18] = tested on: Rattus norvegicus; assay: Toxicity in […] chronic ob/ob model assessed as body weight at 10 mg/kg, po qd for 28 days measured on day 28 post last dose (reference value: 47.3 +/- 1.06 g); format: organism-based; settings: in vivo, 672 h
[19] = tested on: Rattus norvegicus; assay: Toxicity in […] model assessed as serum creatinine level at 10 mg/kg, po qd for 31 days measured on day 32 (reference value: 0.55 +/- 0.018 mg/dl); format: organism-based; settings: in vivo, 744 h
[20] = tested on: Rattus norvegicus; assay: Effect on IDH3B gene expression in epididymal white adipose tissue of Zucker rat sub-chronic fa/fa prediabetic model at 10 mg/kg, po qd for 15 days by microarray analysis relative to control; format: functional
[21] = tested on: Rattus norvegicus; assay: Effect on NDUFA6 gene expression in epididymal white adipose tissue of Zucker rat sub-chronic fa/fa prediabetic model at 10 mg/kg, po qd for 15 days by microarray analysis relative to control; format: functional
[22] = tested on: Rattus norvegicus; assay: Effect on ATP5C1 gene expression in epididymal white adipose tissue of Zucker rat sub-chronic fa/fa prediabetic model at 10 mg/kg, po qd for 15 days by microarray analysis relative to control; format: functional
[23] = tested on: Rattus norvegicus; assay: Effect on GBE1 gene expression in epididymal white adipose tissue of Zucker rat sub-chronic fa/fa prediabetic model at 10 mg/kg, po qd for 15 days by microarray analysis relative to control; format: functional
[24] = tested on: Rattus norvegicus; assay: Effect on PFKFB1 gene expression in epididymal white adipose tissue of Zucker rat sub-chronic fa/fa prediabetic model at 10 mg/kg, po qd for 15 days by microarray analysis relative to control; format: functional
[25] = tested on: Rattus norvegicus; assay: Effect on SFN gene expression in epididymal white adipose tissue of Zucker rat sub-chronic fa/fa prediabetic model at 10 mg/kg, po qd for 15 days by microarray analysis relative to control; format: functional
[26] = tested on: Rattus norvegicus; assay: Effect on PPARGC1B gene expression in epididymal white adipose tissue of Zucker rat sub-chronic fa/fa prediabetic model at 10 mg/kg, po qd for 15 days by microarray analysis relative to control; format: functional
[27] = tested on: Rattus norvegicus; assay: Effect on ACOX1 gene expression in epididymal white adipose tissue of Zucker rat sub-chronic fa/fa prediabetic model at 10 mg/kg, po qd for 15 days by microarray analysis relative to control; format: functional
[28] = tested on: Rattus norvegicus; assay: Effect on NR1H3 gene expression in epididymal white adipose tissue of Zucker rat sub-chronic fa/fa prediabetic model at 10 mg/kg, po qd for 15 days by microarray analysis relative to control; format: functional
[29] = tested on: Rattus norvegicus; assay: Effect on UCP3 gene expression in epididymal white adipose tissue of Zucker rat sub-chronic fa/fa prediabetic model at 10 mg/kg, po qd for 15 days by microarray analysis relative to control; format: functional
[30] = tested on: Rattus norvegicus; assay: Effect on PCCB gene expression in epididymal white adipose tissue of Zucker rat sub-chronic fa/fa prediabetic model at 10 mg/kg, po qd for 15 days by microarray analysis relative to control; format: functional

## CN1CC[C@@H](N2C(=O)S/C(=C\c3ccc4c(cnn4Cc4ccc(Cl)cc4C(F)(F)F)c3)C2=O)[C@H](F)C1
[1]
  Activity: 331.3 mg/dL
[2]
  IC50: 23 nM
[3]
  IC50: > 10000 nM
[4]
  Tmax: 1.5 h
[5]
  half-life: 8.1 h
[6]
  AUC(0-t) at 24 h: 92000 ng·h/mL
[7]
  AUC at 24 h: 85900 ng·h/mL
[8]
  Activity: 142 g
[9]
  Activity: 150 g
[10]
  Activity: 16.9 g
[11]
  Activity: 122 mg
[12]
  Activity: 94 µg
[13]
  Activity: 341 mg/dL
[14]
  Activity: 197 mg/dL
[15]
  concentration at 264 h: 12400 ng/g
[16]
  Activity: 14.9%
[17]
  Cmax: 2680 ng/mL
[18]
  Activity: 46.2 g
[19]
  Activity: 0.44 mg/dL
[20]
  fold change (FC): 1.655
[21]
  fold change (FC): 1.277
[22]
  fold change (FC): 1.239
[23]
  fold change (FC): 1.79
[24]
  fold change (FC): 1.634
[25]
  fold change (FC): -1.468
[26]
  fold change (FC): 2.249
[27]
  fold change (FC): 1.495
[28]
  fold change (FC): 1.389
[29]
  fold change (FC): 2.305
[30]
  fold change (FC): -1.413
